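Protocol summary: plate cells (96-well), add compound at 5 concentrations, incubate 48 h, interpolate endpoints linearly. GI50 marks 50% less growth. Definition used: TGI = concentration required for complete inhibition of growth.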
Assays:
Assay in all cases: NCI tumour cell line growth inhibition, 48 h
NCI-H460 lung = test system: NCI-H460 lung
HT29 colon = test system: HT29 colon
HL-60(TB) leukemia = test system: HL-60(TB) leukemia
MALME-3M melanoma = test system: MALME-3M melanoma
SF-268 CNS = test system: SF-268 CNS
LOX IMVI melanoma = test system: LOX IMVI melanoma
RPMI-8226 leukemia = test system: RPMI-8226 leukemia
SF-295 CNS = test system: SF-295 CNS
SK-MEL-5 melanoma = test system: SK-MEL-5 melanoma
MDA-MB-231 breast = test system: MDA-MB-231 breast

SMILES	TGI (NCI-H460 lung)	TGI (HT29 colon)	TGI (HL-60(TB) leukemia)	TGI (MALME-3M melanoma)	TGI (SF-268 CNS)	TGI (LOX IMVI melanoma)	TGI (RPMI-8226 leukemia) [µM]	TGI (SF-295 CNS)	TGI (SK-MEL-5 melanoma)	GI50 (NCI-H460 lung)	GI50 (HT29 colon)	GI50 (MALME-3M melanoma)	GI50 (SF-268 CNS)	GI50 (LOX IMVI melanoma)	GI50 (SK-MEL-5 melanoma)	GI50 (RPMI-8226 leukemia) [µM]	GI50 (MDA-MB-231 breast)	TGI (MDA-MB-231 breast)	GI50 (SF-295 CNS)	GI50 (HL-60(TB) leukemia)
C=C1C(=O)OC2C=C(CCC(C)=O)C(C)C(OC(C)=O)CC12 (stereo not given)	40.6 µM	27.1 µM	8.89 µM	25.2 µM	32.8 µM	3.34 µM	24	40.2 µM												
O=C1CCCC(=O)N1CCc1c[nH]c2ccccc12	> 100 µM	> 100 µM	> 100 µM	> 100 µM	> 100 µM			> 100 µM	> 100 µM											
COc1cc(C(O)C(=O)c2nc3ccc([N+](=O)[O-])cc3[nH]c2=O)ccc1O (stereo not given)	> 100 µM	> 100 µM	> 100 µM	> 100 µM	> 100 µM	> 100 µM	> 100	> 100 µM	> 100 µM											
Cc1cc2[nH]c(=O)c3c4ccccc4cn3c2cc1C	20.3 µM	> 100 µM		37.5 µM	32.4 µM	4.02 µM	29.8	28.5 µM	29.6 µM	4.43 µM	6.09 µM	22.2 µM	15.3 µM	2.04 µM	13.6 µM	6.75	8.34 µM	23.7 µM	12.2 µM	
COc1ccc(CC(=O)NCCc2ccc(OC)c(OC)c2)cc1Br	> 100 µM	> 100 µM	> 100 µM	> 100 µM	> 100 µM	> 100 µM		> 100 µM												
Cc1ccc2nc(-c3ccccc3)c(N=O)n2c1	> 100 µM	> 100 µM		> 100 µM	> 100 µM	> 100 µM	> 100	> 100 µM	> 100 µM									73.1 µM		
Cc1c(C(=O)CC(=O)C(=O)Nc2ccc(Cl)cc2)[n+](=O)c2ccccc2n1[O-]	> 100 µM		> 100 µM	> 100 µM	> 100 µM		> 100	> 100 µM	> 100 µM											
Cc1cc(NS(=O)(=O)c2ccc(NC(=O)c3ccc(Cl)c4c(Nc5ccc(S(=O)(=O)N=C(N)N)cc5)c5ccccc5nc34)cc2)no1	> 100 µM	> 100 µM		> 100 µM	> 100 µM	98.7 µM	> 100	> 100 µM												
O=S(=O)(c1cccc2c(Cl)cccc12)N1CCCNCC1	47 µM	18.1 µM			52.9 µM	26.3 µM	32.7	34.5 µM	26.5 µM	19.4 µM	3.62 µM		21.8 µM	13.4 µM	13.6 µM	13.9	5.49 µM	19.3 µM	17.7 µM	
CC[C@@]1(OC(=O)CN)C(=O)OCc2c1cc1n(c2=O)Cc2cc3c(N)cccc3nc2-1	0.114 µM	> 100 µM		1.75 µM	> 100 µM	0.0486 µM		0.0497 µM		< 0.01 µM	0.0346 µM	0.0473 µM	< 0.01 µM	< 0.01 µM		0.0474	1.43 µM	> 21.5 µM	< 0.01 µM	< 0.01 µM
O=C(NCCCCCCNC(=O)OCCSCCn1cc(C(=O)NC(=O)OCc2ccccc2)c(=O)[nH]c1=O)OCCSCCn1cc(C(=O)NC(=O)OCc2ccccc2)c(=O)[nH]c1=O	> 100 µM	> 100 µM		> 100 µM		> 100 µM	> 100	> 100 µM	> 100 µM											
O=C(c1ccccc1)[C@@H]1C[C@H](Sc2ccccc2)c2cc(Cl)ccc2N1	91.6 µM	56.3 µM		> 100 µM	48.4 µM	47.7 µM	> 100	92.5 µM	26.9 µM											
NC1=C(c2nc(-c3ccccc3)cs2)C(c2ccc(Br)cc2)c2c(c3ccccc3oc2=O)O1 (stereo not given)	> 150 µg/mL	> 150 µg/mL	97.2 µg/mL	> 150 µg/mL	> 150 µg/mL	> 150 µg/mL		> 150 µg/mL	> 150 µg/mL	66.8 µg/mL	148 µg/mL	> 150 µg/mL	89.7 µg/mL	> 150 µg/mL	> 150 µg/mL		39.2 µg/mL	> 150 µg/mL	> 150 µg/mL	21.9 µg/mL
c1ccc2cc3[s+]snc3cc2c1	> 100 µM	> 100 µM	> 100 µM	> 100 µM	> 100 µM	> 100 µM		> 100 µM	> 100 µM											
Nc1c([N+](=O)[O-])cc2c3c(cccc13)CC2	> 100 µM	> 100 µM	> 100 µM		> 100 µM	> 100 µM	> 100	> 100 µM	> 100 µM									> 100 µM		
O=c1oc2cc(N=Cc3ccc4c(c3)OCO4)ccc2c2ccccc12	> 100 µM	> 100 µM	> 100 µM	> 100 µM	> 100 µM	> 100 µM		> 100 µM	> 100 µM									> 100 µM		
COc1ccc(/C(=N\O)c2cc(C)c(OC)c(C)c2)cc1O	15.6 µM	11.8 µM	0.0607 µM	> 100 µM	> 100 µM	> 100 µM		> 100 µM	0.068 µM	< 0.01 µM	0.0446 µM	< 0.01 µM	0.0222 µM	0.0189 µM	< 0.01 µM		0.0438 µM	> 100 µM	< 0.01 µM	0.011 µM
O=C(O)CCC(NC(=O)c1ccccc1)C(=O)O (stereo not given)	> 100 µM	> 100 µM		> 100 µM	> 100 µM	> 100 µM	> 100	> 100 µM	> 100 µM											
COC(=O)NN=C1C(C)(C)C(=O)C1(C)C	> 100 µM	> 100 µM	> 100 µM	> 100 µM	> 100 µM	> 100 µM	> 100	> 100 µM	> 100 µM											
CC(C)(CN1CCCCC1)C(=O)/C=C/c1ccc(Cl)cc1	8.21 µM	11.7 µM	4.8 µM	18.9 µM	12.1 µM	12.5 µM	10.1	11.3 µM	15.1 µM											
O=C1C2C=CC(C2)C(c2ccc(O)cc2)N1O (stereo not given)	> 100 µM	> 100 µM	> 100 µM	> 100 µM	> 100 µM		> 100	> 100 µM	> 100 µM											

Reference: PubChem BioAssay (NCI)
